{
  "source": "patent US20230270870A1",
  "about": "“DOSAGE OF AN ANTIBODY-DRUG CONJUGATE” (DAIICHI SANKYO COMPANY, LIMITED, priority 2019, published 2023)",
  "key": {"topoisomerase I": {"target": "T1, topoisomerase I (Homo sapiens, UniProt P11387)", "T1 sequence (P11387 1-765)": "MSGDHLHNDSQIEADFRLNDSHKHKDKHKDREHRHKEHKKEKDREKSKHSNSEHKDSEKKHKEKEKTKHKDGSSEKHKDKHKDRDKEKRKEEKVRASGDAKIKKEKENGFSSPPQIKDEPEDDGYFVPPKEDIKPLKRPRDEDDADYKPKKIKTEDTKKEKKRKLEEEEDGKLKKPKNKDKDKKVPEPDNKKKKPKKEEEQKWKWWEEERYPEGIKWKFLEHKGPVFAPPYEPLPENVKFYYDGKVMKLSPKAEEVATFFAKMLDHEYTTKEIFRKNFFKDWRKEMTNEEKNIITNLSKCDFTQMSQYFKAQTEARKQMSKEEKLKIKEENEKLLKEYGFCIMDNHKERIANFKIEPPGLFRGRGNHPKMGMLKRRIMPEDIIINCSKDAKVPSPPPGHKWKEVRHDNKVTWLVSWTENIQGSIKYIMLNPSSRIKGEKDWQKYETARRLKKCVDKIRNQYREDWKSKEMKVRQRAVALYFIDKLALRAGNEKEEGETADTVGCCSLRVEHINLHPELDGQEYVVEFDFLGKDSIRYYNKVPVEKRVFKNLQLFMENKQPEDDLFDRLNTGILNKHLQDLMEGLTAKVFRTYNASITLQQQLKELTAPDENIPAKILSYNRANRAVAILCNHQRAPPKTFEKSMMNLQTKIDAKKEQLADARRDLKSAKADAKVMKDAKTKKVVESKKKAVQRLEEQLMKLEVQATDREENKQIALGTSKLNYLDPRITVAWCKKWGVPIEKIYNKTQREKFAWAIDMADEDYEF", "details": "cited from earlier work"}, "[1]": {"assay": "Phase 1 clinical study: pharmacokinetics", "assay_type": "in vivo", "details": "human, plasma, intravenous", "procedure": "Preliminary single- and multiple-dose PK were evaluated using noncompartmental analysis in 61 subjects who received DS-1062a (0.27 mg/kg to 10 mg/kg)."}, "NSCLC [2]": {"tested_on": "NSCLC", "details": "NSCLC progressed during or after platinum-based doublet chemotherapy, N=290; cited from earlier work"}, "NSCLC [3]": {"tested_on": "NSCLC", "details": "phase 2, subjects who received standard of care; cited from earlier work"}},
  "note": "Where two headings read alike, the source gives them in different places.",
  "data": [
    {"compound": "CC[C@@]1(O)C(=O)OCc2c1cc1n(c2=O)Cc2c-1nc1cc(F)c(C)c3c1c2[C@@H](NC(=O)CO)CC3", "note": "[Compound 1, HO—CH2—C(═O)—(NH—DX)]", "values": [
      {"measurement": "topoisomerase I inhibitory effect", "setting": "topoisomerase I", "result": "topoisomerase I inhibitory effect"},
      {"measurement": "exposure of released drug compared with DS-1062a", "setting": "[1]", "result": "lower than that of DS-1062a"}
    ]},
    {"compound": "CC(=O)O[C@@]12CO[C@@H]1C[C@H](O)[C@@]1(C)C(=O)[C@H](O)C3=C(C)[C@@H](OC(=O)[C@H](O)[C@@H](NC(=O)OC(C)(C)C)c4ccccc4)C[C@@](O)([C@@H](OC(=O)c4ccccc4)[C@H]21)C3(C)C", "note": "[Docetaxel monotherapy, Docetaxel]", "values": [
      {"measurement": "DCR", "setting": "NSCLC [2]", "result": "54.0% (158/290) (not provided)"},
      {"measurement": "ORR", "setting": "NSCLC [2]", "result": "12.0% (36/290) (9.0% to 17.0%)"}
    ]},
    {"compound": "Sactizumab govitecan", "values": [
      {"measurement": "ORR", "setting": "NSCLC [3]", "result": 19, "unit": "%"}
    ]}
  ]
}
